Measurements taken from publication PMC10747479, “Improving Bioaccessibility and Bioavailability of Isoflavone Aglycones from Chickpeas by Germination and Forming β-Cyclodextrin Inclusion Complexes” (Pharmaceutics, 2023).
Read-outs that look alike come from different tables or passages of the source.

Key:
[1] = In vitro release in simulated gastric and intestinal fluid; type: physicochemical; details: artificial gastric juice and artificial intestinal juice, 37 °C, 100 rpm, up to 24 h
Method: According to the determination method of dissolution and release in Chinese Pharmacopoeia 2020, the in vitro sustained release of the isoflavones in the CSE/β-CD inclusion complex and CSE was determined on a SOTAX AT. 7× dissolution tester (Stetten, Switzerland) with a stirring rate of 100 rpm at 37 °C [16] using FMN and BCA as the evaluation index. Simulated gastric fluid (SGF) and simulated intestinal fluid (SIF) were used as release media. The preparation method of SGF was to mix 16.4 mL of the HCl solution (9.5–10.5% by volume) and 10 g of pepsin into 800 mL water, and finally adjust the volume to 1000 mL of water. The preparation of SIF was to add 6.8 g of potassium dihydrogen phosphate to 500 mL of water (use 0.1 M NaOH to adjust the pH to 6.8), then add 10 g of trypsin, and finally adjust the volume to 1000 mL of water. The CSE/β-CD inclusion complex (400.00 mg, containing 2.08 mg FMN and 7.16 mg BCA), CSE (94.12 mg, containing 2.08 mg FMN), and CSE (205.16 mg, containing 7.16 mg BCA) were weighed and added to 900 mL of release media, respectively. […] The sample was added to 3 times the volume of acetonitrile to remove the protein, then centrifuged at 10000 rpm for 10 min, and the obtained supernatant was analyzed by HPLC. […]

[2] = Inclusion ratio and drug loading of the CSE/β-CD inclusion complex; type: physicochemical; details: for inclusion ratio: CSE with β-CD, optimal conditions: β-CD/CSE 4:1, 40 °C, 400 rpm, 2 h; for drug loading in the CSE/β-CD inclusion complex: optimal conditions
Method: A saturated aqueous solution method was used to prepare the inclusion complexes. β-CD (456 mg) was dispersed into 20 mL of water and heated with a water bath. CSE was accurately weighed according to the mass ratio of β-CD/CSE at 7:1 (g/g) to 3:1 (g/g) and dissolved in a small amount of ethanol to obtain CSE ethanol suspension, which was slowly dripped into the β-CD aqueous solution under 30 to 70 °C and at a stirring speed of 200 rpm to 1000 rpm. The mixed solution was stirred for 0.5 h to 4 h. After cooling to room temperature, the mixture was placed at 4 °C for 24 h, and then filtered quickly. The filter residue was moistened with a small amount of ethanol and dried to obtain the β-CD/CSE inclusion complex. The amounts of BCA and FMN in the initial CSE (Mc) and filtrate (Mf) were determined under the same conditions as above using an Agilent 1260 Infinity II HPLC. The inclusion ratio of FMN and BCA was used as an evaluation index to optimize the preparation methods. The calculation formula of the inclusion ratio (R%) was as follows:(1) R%=1−Mf/Mc×100% where Mf is the mass of the remaining isoflavones in the filtrate and Mc is the mass of the isoflavones in the CSE initially added.

[3] = Tissue distribution of FMN and BCA in rats after oral CSE or inclusion complex; type: in vivo, Sprague–Dawley (SD) rats; details: 0.25 h after intragastric administration; for distribution characteristics of the contents in rat tissues: CSE or inclusion complex
Method: (§1) The specific pathogen-free (SPF) male Sprague–Dawley (SD) rats (average body weight, 220 ± 10 g) aged eight weeks old were purchased from Shanghai Slake Laboratory Animal Co., Ltd. (Shanghai, China). After being raised in an environment-controlled feeding room for 1 week, the SD rats were divided into three groups (groups A, B, and C), with six in each group. They were fasted for 12 h and supplied with unlimited water before the experiments. In group A, 200 mg of the CSE/β-CD inclusion complex (FMN: 1.04 mg, BCA: 3.58 mg) was weighed and prepared into a 3 mL suspension by pure water and then given to each rat by gavage. In group B, a certain amount of CSE with FMN of the same quality as that in the inclusion complex was weighed and prepared into a 3 mL suspension by pure water and then given to each rat by gavage. In group C, a certain amount of CSE, ensuring that the content of BCA was the same as that in the inclusion complex, was weighed and prepared into s 3 mL suspension by pure water and then given to each rat by gavage. The dosage of FMN and BCA in rats was controlled at approximately 5 mg/kg and 18 mg/kg, respectively. Approximately 300 μL rat retro-orbital blood samples were obtained and transferred to heparinized tubes […] at 0.083, 0.25, 0.50, 0.75, 1, 2, 4, 6, 8, 12, and 24 h following intragastric administration. After centrifuging at 3500 rpm for 10 min, the upper plasma was put in clean tubes and placed at −20 °C before use. The rats were killed using the carbon dioxide box after taking blood at the last time point. A batch of new SD rats was raised with the same grouping and administration method for the study of tissue composition. At 0.25 h after intragastric administration, the rats were killed, and the organs including hearts, livers, spleens, lungs, kidneys, and brains were quickly separated, put into centrifuge tubes, and temporarily stored at 4 °C.
The contents of FMN and BCA in the tissues of rats were also determined by the above-established UPLC-MS/MS method.
The tissue was washed with normal saline to remove the residual blood, the water on the surface of the tissue was dried, and the tissue was weighed, cut into small pieces, and put into a centrifuge tube. Then, it was added to normal saline of the same amount as the tissue and ground into a homogenate. Then, 300 μL of the tissue homogenate was placed into a centrifuge tube, adding 60 μL of IS and 840 μL of acetonitrile to precipitate the protein. After centrifuging at 13,000 rpm for 10 min, the supernatant was collected and centrifuged again. Finally, the obtained supernatant was taken for subsequent analysis.

[4] = Oral pharmacokinetics of FMN and BCA in rat plasma after CSE or CSE/β-CD inclusion complex; type: in vivo, Sprague–Dawley (SD) rats; details: rats; for AUC(0-inf) / AUC(0-t) / Cmax / half-life / k el / Tmax: male, Sprague-Dawley, rat; for AUC(0-inf) / AUC(0-t) / Cmax / half-life / k el / Tmax / CL / Vd: plasma, FMN approx. 5 mg/kg, BCA approx. 18 mg/kg; for AUC(0-inf) / AUC(0-t) / Cmax / half-life / k el: po; for k el: read-out: Ke (converted); for time at which concentration in rat plasma reached the peak / relative bioavailability in the inclusion complex relative to the CSE: oral; for time at which concentration in rat plasma reached the peak: given the CSE or the inclusion complex; for relative bioavailability in the inclusion complex relative to the CSE: ratio of the AUC
Method: as §1
To comparatively evaluate the pharmacokinetics of the isoflavones in CSE and the CSE/β-CD inclusion complex, the content of FMN and BCA in rat plasma was determined on a UPLC-MS/MS system equipped with a Waters ACQUITY UPLC and a Xevo TQ-S micro ESI-MS/MS system (Milford, America). An ACQUITY UPLC BEH-C18 (2.1 mm × 100 mm, 1.7 μm) column was applied for the separation work using 0.05% formic acid in water (A) and acetonitrile (B) as the mobile phase with a flow rate of 0.2 mL/min and a column temperature of 30 °C. The gradient elution program was as follows: 0-6 min, A 50%. The selected multiple reaction monitoring (MRM) modes in the negative ESI mode of the mass spectrometer were used for all the analytes, and the capillary voltage was set at 2.66 kV with a source temperature of 150 °C using nitrogen as the desolvation gas and cone gas. The CHL was used as an internal standard (IS).
All plasma samples were stored at −20 °C and thawed at room temperature. To precipitate the protein, a 100 μL plasma sample was precisely aspirated, adding 40 μL of the IS solutions and 260 μL of acetonitrile, and vortexing for 3 min. Then the mixture was centrifuged at 13,000 rpm for 10 min and the 5 μL supernatant was injected for = UPLC-MS/MS analysis.
Compared with the rats fed the CSE, the rats fed the inclusion complex had higher Cmax, longer elimination half-lives (t1/2), larger areas under the concentration–time curve (AUC), and lower apparent volumes of distribution (Vd) and plasma clearance (CL). […] This caused the content of FMN and BCA in rats to be higher and have a longer retention time. The relative bioavailability of the two isoflavones in the inclusion complex relative to the CSE was calculated using the ratio of the AUC. […] It is reported that β-CD and its derivatives can inhibit the activity of P-glycoprotein, which is closely related to the bioavailability of oral drugs. The decrease in P-glycoprotein activity can reduce the excretion of drugs from cells.

[5] = oral gavage of CSE/β-CD inclusion complex

COc1ccc(-c2coc3cc(O)cc(O)c3c2=O)cc1 [BCA, biochanin A]
solubility and dissolution properties by forming the CSE/β-CD inclusion complex, compared with CSE [1]: significantly improved | inclusion ratio [2]: 81.79% | drug loading in the CSE/β-CD inclusion complex [2]: 17.9 mg/g | content in the tissues, inclusion complex compared with CSE [3]: significantly higher | distribution characteristics of the contents in rat tissues [3]: liver > kidneys > lungs > spleen > heart > brain | AUC(0-inf) [4, 5]: 173 ± 56.3 ng·h/mL | AUC(0-t) [4, 5]: 102 ± 45.3 ng·h/mL | Cmax [4, 5]: 22.4 ± 2.45 ng/mL | half-life [4, 5]: 440 ± 184 min | k el [4, 5]: 3.06e-05 s⁻¹ | AUC(0-inf) ([4]; oral gavage of CSE): 61.9 ± 15.5 ng·h/mL | AUC(0-t) ([4]; oral gavage of CSE): 37.6 ± 17.7 ng·h/mL | Cmax ([4]; oral gavage of CSE): 13.9 ± 3.17 ng/mL | half-life ([4]; oral gavage of CSE): 278 ± 52.8 min | k el ([4]; oral gavage of CSE): 4.17e-05 s⁻¹ | Tmax ([4]; oral gavage of CSE): 15 min | CL [4, 5]: 93.83 ± 29.01 L/h | Vd [4, 5]: 896.37 ± 113.90 L | CL ([4]; oral gavage of CSE): 252.24 ± 52.73 L/h | Vd ([4]; oral gavage of CSE): 1635.82 ± 92.84 L | time at which concentration in rat plasma reached the peak [4]: 15 min | relative bioavailability in the inclusion complex relative to the CSE [4]: 270.7%

COc1ccc(-c2coc3cc(O)ccc3c2=O)cc1 [FMN, formononetin]
solubility and dissolution properties by forming the CSE/β-CD inclusion complex, compared with CSE [1]: significantly improved | inclusion ratio [2]: 53.31% | drug loading in the CSE/β-CD inclusion complex [2]: 5.2 mg/g | content in the tissues, inclusion complex compared with CSE [3]: significantly higher | distribution characteristics of the contents in rat tissues [3]: liver > kidneys > lungs > spleen > heart > brain | AUC(0-inf) [4, 5]: 72 ± 25.7 ng·h/mL | AUC(0-t) [4, 5]: 51.5 ± 12.3 ng·h/mL | Cmax [4, 5]: 21 ± 2.81 ng/mL | half-life [4, 5]: 271 ± 124 min | k el [4, 5]: 5.56e-05 s⁻¹ | AUC(0-inf) ([4]; oral gavage of CSE): 37 ± 12.9 ng·h/mL | AUC(0-t) ([4]; oral gavage of CSE): 30 ± 15.2 ng·h/mL | Cmax ([4]; oral gavage of CSE): 14.4 ± 1.46 ng/mL | half-life ([4]; oral gavage of CSE): 230 ± 126 min | k el ([4]; oral gavage of CSE): 6.39e-05 s⁻¹ | Tmax ([4]; oral gavage of CSE): 15 min | CL [4, 5]: 75.79 ± 23.47 L/h | Vd [4, 5]: 441.60 ± 140.88 L | CL ([4]; oral gavage of CSE): 148.14 ± 47.18 L/h | Vd ([4]; oral gavage of CSE): 722.51 ± 197.97 L | time at which concentration in rat plasma reached the peak [4]: 15 min | relative bioavailability in the inclusion complex relative to the CSE [4]: 171.6%
